Source: ChEMBL document CHEMBL3352264, “Synthesis and structure-activity relationships of new carbonyl guanidine derivatives as novel dual 5-HT₂B and 5-HT₇ receptor antagonists. Part 2” (Bioorg Med Chem, 2014)
The source made the active and inactive calls. The calls are words filed in the database; no cut-off is given here.

Columns and labels:
[1] = target: T1, 5-hydroxytryptamine receptor 7 (Homo sapiens, UniProt P34969); assay: Displacement of [3H]HT from human 5-HT7 receptor expressed in CHO cells by liquid scintillation counting; format: cell-based
[2] = target: T2, 5-hydroxytryptamine receptor 2B (Homo sapiens, UniProt P41595); assay: Displacement of [3H]Mesulergine from human 5-HT2B receptor expressed in HEK293-EBNA cells by liquid scintillation counting; format: cell-based
[3] = test system: Mus musculus; assay: Reversal of 5-carboxamidotryptamine-incued hypothermia in po dosed ddY mouse measured after 60 mins of treatment; format: functional; conditions: 1 h, read-out: MED
[4] = test system: Mus musculus; assay: Hypothermic effect in po dosed ddY mouse measured after 60 mins of treatment; format: ADME, organism-based; conditions: in vivo, 1 h
[5] = target: T3, Adrenergic receptor alpha-1 (Homo sapiens, UniProt P35348+P25100+P35368); assay: Binding affinity to alpha-1 adrenergic receptor (unknown origin)
T3 sequence (P35348 whole entry): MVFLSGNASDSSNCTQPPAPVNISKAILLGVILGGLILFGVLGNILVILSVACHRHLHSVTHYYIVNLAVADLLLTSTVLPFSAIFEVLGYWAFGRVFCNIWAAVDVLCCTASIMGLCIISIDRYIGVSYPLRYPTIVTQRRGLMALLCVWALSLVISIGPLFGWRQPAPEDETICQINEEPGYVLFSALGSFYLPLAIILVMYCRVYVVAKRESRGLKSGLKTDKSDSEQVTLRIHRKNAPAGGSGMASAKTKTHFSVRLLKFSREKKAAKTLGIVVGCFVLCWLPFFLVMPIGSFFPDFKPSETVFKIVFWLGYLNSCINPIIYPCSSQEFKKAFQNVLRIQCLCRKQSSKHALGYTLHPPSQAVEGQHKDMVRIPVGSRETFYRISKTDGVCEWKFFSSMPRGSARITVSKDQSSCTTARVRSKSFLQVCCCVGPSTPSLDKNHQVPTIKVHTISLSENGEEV
T3 sequence (P25100 whole entry): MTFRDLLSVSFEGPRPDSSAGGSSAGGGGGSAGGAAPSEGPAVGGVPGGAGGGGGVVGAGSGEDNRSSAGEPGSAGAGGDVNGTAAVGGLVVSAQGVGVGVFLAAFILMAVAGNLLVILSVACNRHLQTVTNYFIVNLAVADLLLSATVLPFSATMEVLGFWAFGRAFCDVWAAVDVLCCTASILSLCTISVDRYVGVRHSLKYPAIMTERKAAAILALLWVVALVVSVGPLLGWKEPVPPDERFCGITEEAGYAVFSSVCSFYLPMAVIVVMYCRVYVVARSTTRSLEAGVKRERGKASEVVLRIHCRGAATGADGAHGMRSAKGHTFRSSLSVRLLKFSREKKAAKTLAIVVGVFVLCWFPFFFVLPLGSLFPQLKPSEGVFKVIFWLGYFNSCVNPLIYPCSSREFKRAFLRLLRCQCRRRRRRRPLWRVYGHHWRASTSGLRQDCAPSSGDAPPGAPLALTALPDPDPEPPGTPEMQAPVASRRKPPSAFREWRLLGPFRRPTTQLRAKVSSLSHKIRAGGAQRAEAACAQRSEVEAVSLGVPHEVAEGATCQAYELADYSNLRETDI
T3 sequence (P35368 whole entry): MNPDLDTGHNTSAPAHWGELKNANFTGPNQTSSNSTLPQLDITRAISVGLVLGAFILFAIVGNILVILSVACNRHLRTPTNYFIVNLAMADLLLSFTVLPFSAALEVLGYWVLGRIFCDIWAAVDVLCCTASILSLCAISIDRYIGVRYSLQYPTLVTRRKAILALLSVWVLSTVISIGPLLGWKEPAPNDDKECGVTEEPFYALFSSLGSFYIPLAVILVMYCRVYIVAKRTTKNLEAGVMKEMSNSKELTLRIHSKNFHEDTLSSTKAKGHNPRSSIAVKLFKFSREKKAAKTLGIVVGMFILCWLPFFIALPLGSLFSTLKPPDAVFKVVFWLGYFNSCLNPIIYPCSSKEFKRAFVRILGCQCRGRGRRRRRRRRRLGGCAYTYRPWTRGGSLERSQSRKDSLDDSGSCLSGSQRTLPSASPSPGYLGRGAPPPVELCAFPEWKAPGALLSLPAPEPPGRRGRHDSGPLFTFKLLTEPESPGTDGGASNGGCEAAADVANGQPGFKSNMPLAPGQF

[6] = target: T1, 5-hydroxytryptamine receptor 7; assay: Inhibition of human 5-HT7 receptor expressed in CHO cells assessed as cAMP production by EIA system; format: functional, cell-based
[7] = target: T4, Muscarinic acetylcholine receptor M1 (Homo sapiens, UniProt P11229); assay: Binding affinity to muscarinic M1 receptor (unknown origin)
T4 sequence (P11229 whole entry): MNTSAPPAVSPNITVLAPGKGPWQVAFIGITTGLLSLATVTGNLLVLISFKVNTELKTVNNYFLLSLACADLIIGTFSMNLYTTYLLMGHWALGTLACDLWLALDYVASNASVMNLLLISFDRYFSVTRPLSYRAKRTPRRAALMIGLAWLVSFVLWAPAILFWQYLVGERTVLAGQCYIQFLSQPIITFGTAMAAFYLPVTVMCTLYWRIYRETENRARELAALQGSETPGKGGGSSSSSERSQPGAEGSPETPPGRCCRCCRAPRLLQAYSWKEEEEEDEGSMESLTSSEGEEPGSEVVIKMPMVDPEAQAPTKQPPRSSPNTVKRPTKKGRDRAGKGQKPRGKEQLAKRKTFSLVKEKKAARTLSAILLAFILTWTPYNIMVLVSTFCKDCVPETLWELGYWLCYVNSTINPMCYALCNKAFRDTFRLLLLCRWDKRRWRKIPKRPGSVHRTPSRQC

[8] = test system: Cavia porcellus; assay: Suppression of 5-HT-induced dural plasma protein extravasation in po dosed Hartley guinea pig after 16 hrs; format: functional, organism-based
[9] = target: D(2) dopamine receptor (Homo sapiens, UniProt P14416); assay: Binding affinity to dopamine D2 receptor (unknown origin)
[10] = test system: Cavia porcellus; assay: Suppression of 5-HT-induced dural plasma protein extravasation in Hartley guinea pig at 30 mg/kg, po after 16 hrs; format: functional, organism-based; design: dose 30 mg/kg
[11] = target: 5-hydroxytryptamine receptor 2A (Homo sapiens, UniProt P28223); assay: Binding affinity to 5-HT2A receptor (unknown origin)
[12] = target: T2, 5-hydroxytryptamine receptor 2B; assay: Inhibition of human 5-HT2B receptor expressed in HEK293-EBNA cells assessed as [3H]PI metabolism by liquid scintillation counting; format: cell-based
[13] = target: T5, 5-hydroxytryptamine receptor 2C (Homo sapiens, UniProt P28335); assay: Binding affinity to 5-HT2C receptor (unknown origin)
T5 sequence (P28335 whole entry): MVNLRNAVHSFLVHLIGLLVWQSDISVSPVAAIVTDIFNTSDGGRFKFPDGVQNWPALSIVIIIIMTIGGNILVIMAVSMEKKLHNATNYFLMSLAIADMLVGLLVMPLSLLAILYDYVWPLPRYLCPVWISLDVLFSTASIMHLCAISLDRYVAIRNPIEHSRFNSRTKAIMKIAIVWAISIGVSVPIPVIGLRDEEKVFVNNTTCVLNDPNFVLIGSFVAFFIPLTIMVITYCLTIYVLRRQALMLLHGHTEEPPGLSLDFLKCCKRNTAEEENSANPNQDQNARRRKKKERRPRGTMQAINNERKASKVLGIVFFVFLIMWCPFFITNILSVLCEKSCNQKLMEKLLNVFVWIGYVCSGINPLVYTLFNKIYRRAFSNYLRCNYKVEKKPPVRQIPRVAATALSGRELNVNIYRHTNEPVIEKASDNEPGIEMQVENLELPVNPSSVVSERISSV

T1 sequence (P34969 whole entry): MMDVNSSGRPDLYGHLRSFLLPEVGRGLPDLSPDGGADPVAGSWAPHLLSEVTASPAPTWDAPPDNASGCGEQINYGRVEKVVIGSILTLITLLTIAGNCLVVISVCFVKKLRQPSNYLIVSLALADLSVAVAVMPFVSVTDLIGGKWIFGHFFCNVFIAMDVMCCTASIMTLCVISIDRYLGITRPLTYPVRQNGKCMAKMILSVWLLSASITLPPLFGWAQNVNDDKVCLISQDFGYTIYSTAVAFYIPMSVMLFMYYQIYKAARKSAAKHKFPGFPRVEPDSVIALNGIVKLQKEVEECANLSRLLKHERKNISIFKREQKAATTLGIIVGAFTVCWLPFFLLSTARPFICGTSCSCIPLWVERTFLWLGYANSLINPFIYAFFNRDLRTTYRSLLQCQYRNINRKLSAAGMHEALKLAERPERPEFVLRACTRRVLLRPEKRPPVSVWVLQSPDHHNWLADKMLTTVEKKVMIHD
T2 sequence (P41595 whole entry): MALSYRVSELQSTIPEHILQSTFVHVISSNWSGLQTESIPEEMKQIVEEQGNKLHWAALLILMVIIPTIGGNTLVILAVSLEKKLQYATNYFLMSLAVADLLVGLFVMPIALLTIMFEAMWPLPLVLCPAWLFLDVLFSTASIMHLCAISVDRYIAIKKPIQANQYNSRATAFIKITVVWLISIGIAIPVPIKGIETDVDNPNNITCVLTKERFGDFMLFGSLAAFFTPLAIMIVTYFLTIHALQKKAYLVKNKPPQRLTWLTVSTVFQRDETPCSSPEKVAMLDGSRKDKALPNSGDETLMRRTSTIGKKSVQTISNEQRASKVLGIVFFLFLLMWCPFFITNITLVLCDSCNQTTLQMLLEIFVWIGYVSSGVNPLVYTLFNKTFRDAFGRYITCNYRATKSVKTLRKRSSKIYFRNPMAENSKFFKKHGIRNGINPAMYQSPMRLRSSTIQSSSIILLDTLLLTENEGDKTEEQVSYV
Sequence of D(2) dopamine receptor (P14416 whole entry): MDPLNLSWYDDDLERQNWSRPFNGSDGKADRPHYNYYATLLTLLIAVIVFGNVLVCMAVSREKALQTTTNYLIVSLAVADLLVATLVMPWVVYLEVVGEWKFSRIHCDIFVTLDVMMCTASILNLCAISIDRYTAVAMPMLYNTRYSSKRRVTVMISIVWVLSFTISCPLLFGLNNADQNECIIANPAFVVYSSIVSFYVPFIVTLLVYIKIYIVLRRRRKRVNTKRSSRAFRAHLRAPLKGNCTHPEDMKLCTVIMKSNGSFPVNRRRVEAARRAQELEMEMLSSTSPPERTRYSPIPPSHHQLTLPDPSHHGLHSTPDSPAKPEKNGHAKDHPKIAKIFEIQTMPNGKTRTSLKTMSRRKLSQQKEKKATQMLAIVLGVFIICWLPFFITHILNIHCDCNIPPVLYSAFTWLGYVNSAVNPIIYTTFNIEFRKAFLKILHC
Sequence of 5-hydroxytryptamine receptor 2A (P28223 whole entry): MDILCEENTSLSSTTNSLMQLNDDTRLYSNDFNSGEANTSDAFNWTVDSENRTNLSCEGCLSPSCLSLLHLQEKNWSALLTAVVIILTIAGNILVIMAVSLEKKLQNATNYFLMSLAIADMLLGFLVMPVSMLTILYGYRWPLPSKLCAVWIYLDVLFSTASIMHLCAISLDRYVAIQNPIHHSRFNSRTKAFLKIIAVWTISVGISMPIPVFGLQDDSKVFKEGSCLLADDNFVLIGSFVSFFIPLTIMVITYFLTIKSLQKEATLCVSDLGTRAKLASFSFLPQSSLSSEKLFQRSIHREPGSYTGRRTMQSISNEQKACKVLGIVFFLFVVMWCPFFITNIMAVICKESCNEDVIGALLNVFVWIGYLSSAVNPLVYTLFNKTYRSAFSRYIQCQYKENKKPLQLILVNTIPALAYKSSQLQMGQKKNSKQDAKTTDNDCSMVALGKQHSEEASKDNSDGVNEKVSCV

Row | SMILES | Ki [1] [µM] | Ki [2] [µM] | further results
1 | N=C(N)NC(=O)c1ccc2c(c1)C(F)c1ccccc1-2 (stereo not given) | 0.057 | 0.0009 | 
2 | CCc1cccc2c1-c1ccc(C(=O)N=C(N)N)cc1C2O (stereo not given) | 0.0041 | 0.0016 | minimal effective dose [3]: > 30 mg/kg
3 | CC(=O)NC1c2ccccc2-c2ccc(C(=O)N=C(N)N)cc21 (stereo not given) | 0.18 | 0.034 | 
4 | Cc1cccc2c1C(O)c1cc(C(=O)N=C(N)N)ccc1-2 (stereo not given) | 0.087 | 0.00067 | 
5 | NC(N)=NC(=O)c1ccc2c(c1)C(O)c1cc(Cl)ccc1-2 (stereo not given) | > 1 | 0.0017 | 
6 | CC1c2ccccc2-c2ccc(C(=O)N=C(N)N)cc21.Cl (stereo not given) | 0.0041 | 0.0044 | Activity [4]: Toxic
7 | NC(N)=NC(=O)c1ccc2c(c1)C(N)c1ccccc1-2 (stereo not given) | 0.043 | 0.018 | 
8 | NC(N)=NC(=O)c1ccc2c(c1)C(O)c1c(Cl)cccc1-2 (stereo not given) | 0.033 | 0.00011 | 
9 | Cc1cccc2c1-c1ccc(C(=O)N=C(N)N)cc1C2O.Cl (stereo not given) | 0.014 | 0.00081 | Activity [4]: Toxic
10 | CCc1cccc2c1-c1ccc(C(=O)N=C(N)N)cc1C2(C)O.Cl (stereo not given) | 0.0023 | 0.00071 | minimal effective dose [3]: > 30 mg/kg
11 | NC(N)=NC(=O)c1ccc2c(c1)C(O)c1ccccc1-2 (stereo not given) |  |  | minimal effective dose [3]: > 30 mg/kg
12 | CC1(O)c2ccccc2-c2ccc(C(=O)N=C(N)N)cc21.Cl (stereo not given) | 0.0043 | 0.0043 | Ki [5]: > 1 µM; IC50 [6]: 0.059 µM; Ki [7]: > 1 µM; inhibition [8]: Dose-dependent effect; Ki [9]: > 1 µM; inhibition [10]: Active; Ki [11]: > 1 µM; minimal effective dose [3]: 30 mg/kg; IC50 [12]: 0.052 µM; Ki [13]: 0.39 µM
13 | NC(N)=NC(=O)c1ccc2c(c1)C(O)c1cccc(F)c1-2 (stereo not given) | 0.029 | 0.00091 | 
14 | Cc1cccc2c1-c1ccc(C(=O)N=C(N)N)cc1C2(C)O.Cl (stereo not given) | 0.004 | 0.0011 | minimal effective dose [3]: > 30 mg/kg
15 | COCc1cccc2c1-c1ccc(C(=O)N=C(N)N)cc1C2O (stereo not given) | 0.05 | 0.0063 | 
16 | NC(N)=NC(=O)c1ccc2c(c1)C(O)c1cccc(CO)c1-2 (stereo not given) | 0.041 | 0.0066 | 
17 | NC(N)=NC(=O)c1ccc2c(c1)C(O)c1ccc(Cl)cc1-2 (stereo not given) | 0.16 | 0.011 | 
18 | NC(N)=NC(=O)c1ccc2c(c1)C(O)c1cccc(Cl)c1-2 (stereo not given) | 0.041 | 0.0015 | 
